Laboratory results from patent US12285459B2, “Saposin-A derived peptides and uses thereof” (CHILDREN'S MEDICAL CENTER CORPORATION, priority 2011, dated 2025).
Entries after “also recorded” stand apart in the source; their conditions may differ.

Experiments:
[1] = test system: Tsp-1 expression in Gr1+ cells; assay: Tsp-1 in Gr1+ cells in lungs of mice given PC3M-LN4 CM plus peptide; assay type: in vivo, C57BL/6J mice
Description: CM from PC3M-LN4 cells cultured in serum-free medium for 24 hours was harvested, centrifuged and filtered through […] pore-size filters to remove any cells or cell debris. Wild-type C57BL/6J mice were treated with 200 μL serum-free conditioned media from PC3M-LN4 cells daily for 6 days via intraperitoneal (i.p.) injection in combination with DWLPK (SEQ ID NO: 4) peptide or scrambled peptide.
Animals were euthanized at the end of experiments and lungs were quickly perfused by injecting 5 ml of cold PBS through the right ventricle of the heart. One part of the lung from each animal was fixed in 3.7% formalin and the other part was sorted by flow cytometry for either protein or RNA extraction.
For microscopy, following formalin fixation, tissues were cryoembedded in Tissue-Tek O.C.T. embedding compound (Electron Microscopy Sciences). Sections (30 μm) were washed 3 times in PBS and incubated in blocking/permeabilization buffer (PBS+2 mM EDTA, 1% BSA, 1% Goat Serum, 0.05% Triton X-100). […]
Total RNA from flow cytometry sorted cells was extracted using the PicoPure RNA extraction kit (Arcturus) following the manufacturer's protocol. […] The relative abundance of each transcript compared with the control was calculated utilizing the delta-Ct method.

[2] = test system: Tsp-1 in white blood cells; assay: Tsp-1 protein in white blood cells of peptide-injected mice, Western blot; assay type: in vivo; settings: 5 day I.P. injections, 30 mg/kg
Description: Mice were injected with DWLPK (SEQ ID NO: 4) or a scramble peptide using 5 day I.P. injections with 30 mg/kg peptide. White blood cells were isolated, protein was extracted, and a Western blot was performed measuring Tsp-1 protein.

[3] = test system: Tsp-1 and p53 expression in prostate fibroblasts; assay: Tsp-1 and p53 expression in prostate fibroblasts treated with peptides, western blot; assay type: cell-based; settings: FIG. 2; compared with the longer peptide of the 35-40 region
Description: Methods of assaying the effects of a polypeptide described herein on Tsp-1 and p53 expression are described herein. Briefly, a control Psap alongside a test polypeptide, is applied to a cell culture of prostate fibroblasts. The conditioned media from PC3M-LN4 (LN4) and PC3 cells are used as controls, with PC3 as positive/stimulating control and LN4 as negative/inhibiting controls. After a period of incubation (˜16 h), the cells are harvested, rinsed, and lysed. The lysates are analyzed for the level of Tsp-1 and p53 expression by western blot analyses, with β-actin as the internal lysate protein loading control.
These peptides were used to treat prostate and lung fibroblasts in vitro at a concentration of 10 ug/mL for 16 hours in ATCC-specified media supplemented with 0.1% FBS. Tsp-1 and p53 expression was analyzed by western blot as described previously (Kang, Y., et al., (2003) Cancer Cell 3:537-549.)

[4] = test system: PC3M-LN4 prostate cancer cells; assay: Orthotopic PC3M-LN4 prostate tumor model; assay type: in vivo, SCID mice; settings: 30 mg/kg/day i.p. from day 26 for 16 days; PBS control
Description: C57Bl6 SCID mice were injected with 1×10^6 PC3M-LN4 prostate cancer cells in the prostate gland as described previously (Kang et al). After 26 days the animals were treated with either PBS or peptides corresponding to residues 36-40 or 36-39 of saposin A at a dose of 30 mg/kg/day via intraperitoneal (i.p.) injection. After 16 days of treatment all animals were sacrificed, prostate tumors were weighed and harvested, along with the lungs of animals. Tissues were either fixed in NBF, or lysed and analyzed for Tsp-1 and p53 expression by western blot analysis.
The peptides were then tested for their ability to inhibit tumor growth and metastasis in three models, the PC3M-LN4 prostate cancer model, the B16-B6 melanoma model and the Lewis Lung Carcinoma (LLC) model. 1×10^6 PC3M-LN4 cells were first injected into the prostate gland of SCID mice. After 26 days these mice were treated with either PBS alone or the 4- or 5-amino acid peptide at a dose of 30 mg/kg/day via i.p. injection. The mice were treated for 16 days after which the mice were examined the size of the tumors and the expression of Tsp-1 and p53 in the primary tumors and lungs of the animals. The tumors in animals treated with the 4- and 5-amino acid peptides were, on average, 45% and 40% the size of control animals, respectively (FIG. 6).

[5] = test system: primary ovarian cancer cells; assay: Intraperitoneal metastatic ovarian cancer model, bioluminescence; assay type: in vivo, CB-17 SCID mice; settings: 40 mg/kg QD from day 17; after 30 days
Description: For metastatic ovarian cancer cell injections, 5×10^6 viable primary ovarian cancer cells were injected into CB-17 SCID mice intraperitoneally in a volume of 0.1 ml. Tumor growth was monitored by live animal bioluminescence imaging (Xenogen) once per week. For in vivo determination of the metastatic burden, mice were anaesthetized and injected intraperitoneally with 75 mg/kg of D-luciferin (100 uL of 30 mg/mL in PBS). Metastatic growth was monitored over time using bioluminescence imaging performed with mice in a supine position 5 min after D-luciferin injection with a Xenogen IVIS system coupled to Living Image acquisition and analysis software (Xenogen). For BLI plots, photon flux was calculated for each mouse by using the same circular region of interest encompassing the abdomen of the mouse.
To determine whether DWLPK (SEQ ID NO: 4) could inhibit or regress existing ovarian metastases 5×10^6 primary ovarian cancer cells were injected intraperitoneally into SCID mice. After 17 days treatment was initiated with DWLPK (SEQ ID NO: 4) at a dose of 40 mg/kg QD, cisplatin at a dose of 2 mg/kg QOD, a combination of DWLPK (SEQ ID NO: 4) and cisplatin at the same doses, or PBS (control). It was observed that DWLPK (SEQ ID NO: 4) treatment completely regressed the metastases in 11/12 after 30 days and the regressed the metastases in the remaining mice by 99% (FIG. 20).

**Q.** What does the source list for “DWLPK [5-amino acid peptide corresponding to residues 36-40 of saposin A]”?
**A.** recruitment of Gr1+ cells in the lungs ([1]; LN4 CM alone or in combination with peptide): identical regardless of the treatment; Tsp-1 expression in the Gr1+ cells ([1]; LN4 CM daily for 6 days i.p. in combination with peptide): more than two fold; Tsp-1 protein in white blood cells [2]: upregulated; also recorded: increased Tsp-1 expression; ability to stimulate Tsp-1 in prostate fibroblasts after removing a terminal residue [3]: increased the ability of the resulting 5-amino acid peptide to stimulate Tsp-1; prostate tumor size relative to control animals [4]: 40%; mice with completely regressed metastases [5]: 11/12; regression of the metastases in the remaining mice [5]: 99%
